The values below come from US5840677A, “Boronic acid or borinic acid derivatives as enzyme stabilizers” (Novo Nordisk A/S, priority 1993, dated 1998).

Assay [1] addresses T1, Alcalase (Bacillus licheniformis, UniProt P00780).
T1 construct: purchased Novo Nordisk A/S
T1 sequence (P00780 106-379): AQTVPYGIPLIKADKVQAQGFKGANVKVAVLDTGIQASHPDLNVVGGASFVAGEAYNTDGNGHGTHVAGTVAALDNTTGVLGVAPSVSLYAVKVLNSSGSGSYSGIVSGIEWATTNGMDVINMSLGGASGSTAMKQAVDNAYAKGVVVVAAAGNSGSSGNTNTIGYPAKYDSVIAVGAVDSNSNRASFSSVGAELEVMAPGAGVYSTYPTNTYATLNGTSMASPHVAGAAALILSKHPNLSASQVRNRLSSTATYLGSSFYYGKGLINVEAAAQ
The assay is described as follows: biochemical. To be noted: substrate SAAPFpNA; 0.1 M Tris-HCl pH 8.6; 25° C.; Alcalase 1×10^-10 -3×10^-10 M. From the text:
(§1) c) Determination of Ki : The inhibition constant Ki may be determined by using standard methods, for reference see Keller et al, Biochem. Biophys. Res. Com. 176, 1991, pp.401-405; J. Bieth in Bayer-Symposium "Proteinase Inhibitors", pp. 463-469, Springer-Verlag, 1974 and Lone Kierstein Hansen in "Determination of Specific Activities of Selected Detergent Proteases using Protease Activity, Molecular Weights, Kinetic Parameters and Inhibition Kinetics", PhD-report, Novo Nordisk A/S and University of Copenhagen, 1991.
(§2) The inhibition constants Ki, for the inhibition of Alcalase and Savinase respectively, were determined using standard methods under the following conditions:
(§3) Substrate: Succinyl-Alanine-Alanine-Proline-Phenylalanine-para-nitro-anilide=SAAPFpNA(Sigma S-7388).
(§4) Buffer: 0.1 M Tris-HCl pH 8.6; 25° C.
(§5) Enzyme concentration in assay
(§6) The initial rate of substrate hydrolysis was determined at nine substrate concenterations in the range of 0.01 to 2 mM using a Cobas Fara automated spectrophotometer. The kinetic parameters Vmax and Km were determined using ENZFITTER (a non-linear regression data analysis program). kcat was calculated from the equation Vmax =kcat X[Eo ]. The concentration of active enzyme [Eo ] was determined by active site titration using tight-binding protein proteinase inhibitors. The inhibition constant Ki was calculated from plots of Km /kcat as a function of the concentration of inhibitor. The inhibitors were assumed to be 100% pure and the molar concentrations were determined using weighing numbers and molecular weights.

The target in assay [2] is T2, Savinase (Lederbergia lenta, UniProt P29600).
T2 construct: purchased Novo Nordisk A/S
T2 sequence (P29600 1-269): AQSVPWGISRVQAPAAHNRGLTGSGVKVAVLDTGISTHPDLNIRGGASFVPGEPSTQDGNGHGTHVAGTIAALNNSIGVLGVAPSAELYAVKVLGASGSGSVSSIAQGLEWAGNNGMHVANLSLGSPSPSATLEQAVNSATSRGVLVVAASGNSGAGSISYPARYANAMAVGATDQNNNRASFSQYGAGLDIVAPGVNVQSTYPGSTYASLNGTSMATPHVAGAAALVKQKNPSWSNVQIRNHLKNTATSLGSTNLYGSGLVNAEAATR
The assay is described as follows: biochemical. Set-up: species or system Bacillus. To be noted: substrate SAAPFpNA; 0.1 M Tris-HCl pH 8.6; 25° C.; Savinase 1-10^-10 -3×10^-10 M.
Source text: as §1, §2, §3, §4, §5, §6

For assay [3], the system named is proteolytic enzymes. To be noted: prior art; cited from earlier work.
Assay [4] deals with T2, Savinase. The assay is described as follows: Storage Stability Test in Liquid Detergent (improvement factor IFI, inhibition of protease). Format: biochemical, Bacillus. To be noted: US-type liquid detergent, 1% w/w Savinase + 1% w/w Lipolase, 0, 3, 7 and 14 days at 30° C. Here is the method:
a) Storage Stability Test in Licuid Deterrent: Enzyme(s) and stabilizer are added to a liquid detergent formulation and stored at well defined conditions. The enzyme activity of each enzyme is determined as a function of time, e.g. after 0, 3, 7 and 14 days.
To calculate the inhibition efficiency from the storage stability date a reaction mechanism is proposed.
From these reactions three coupled differential equations are derived describing the deactivation of P, L and PI. The reaction rate constants are derived from storage stability data by the use of a parameter estimation method (Gauss-Newton with the Levenberg modification). The storage stability data give the concentration of (P+PI) and L as a function of time.
Reaction IV is excluded from the system to reduce the number of parameters thereby describing the stability of the inhibited enzyme by only one reaction rate constant (from equation V).
In all experiments there is a large surplus of inhibitor molecules compared to protease molecules, i.e. a constant concentration of inhibitor (corresponding to the added amount of inhibitor) is a reasonable assumption.
An improvement factor is thus derived: [formula] IFI measures the inhibition efficiency given by the inhibition constants KI from reaction III.
Different boronic and borinic acid derivative enzyme stabilizers were also tested in storage stability tests in liquid detergents using the method described previously under the following conditions: […]

For assay [5], the system named is subtilisin. To be noted: Keller et al, Biochem. Biophys. Res. Com. 176, 1991; cited from earlier work.
Setting [6] is: stabilizer 5 mmole/kg, relative to boric acid.

`CCc1ccc(B(O)O)o1` [5-Ethylfuran-2-boronic acid]: the inhibition constant Ki in assay [1] is 2000 µM; in assay [2], 3000 µM.

Consider acetamidobenzene boronic acid, for which, in assay [3], the “inhibition of proteolytic enzymes” value is given as “superior inhibitor of proteolytic enzymes”.

For the molecule `CCc1ccc(B(O)O)s1` [5-Ethylthiophene-2-boronic acid], the Ki in assay [1] is 700 µM; in assay [2], 900 µM. In addition, the “Improvement factor IFI” value in assay [4] (setting [6]) came to 66.

With `OB(O)c1sccc1Br` [3-Bromothiophene-2-boronic acid], the inhibitory constant (Ki) in assay [1] and in assay [2] was 2000 µM in each case.

With `OB(O)c1cc2ccccc2o1`, the values for the inhibition constant (Ki) in assay [1] and in assay [2] were 1000 µM and 800 µM, respectively.

As to `CCCc1ccc(B(O)O)s1` [5-n-Propylthiophene-2-boronic acid], the Ki in assay [1] stood at 1500 µM; in assay [2], 3000 µM.

Take `OB(O)c1ccc(Br)s1` [5-Bromothiophene-2-boronic acid]: the results for the Ki in assay [1] and in assay [2] were 400 µM and 200 µM, respectively. The “Improvement factor IFI” value in assay [4] (setting [6]) is on record as 124.

For `CCCCB(O)O` [butyl], in assay [5], the “capacity as subtilisin inhibitor” value is listed as “poor inhibitors”.

`OB(O)c1cc2ccccc2s1` [Thionaphthrene-1-boronic acid]: the Ki turned out to be 2000 µM in assay [1] and 3000 µM in assay [2]. Also, in assay [4] (setting [6]), the “Improvement factor IFI” value is 20.

Take `OB(O)CCC1CCCCC1` [2-cyclohexylethyl]: in assay [5], the “capacity as subtilisin inhibitor” value is reported as “poor inhibitors”.

Consider `COc1ccc(B(O)O)o1` [5-Methoxyfuran-2-boronic acid], for which the inhibition constant Ki was 2000 µM in assay [1] and 3000 µM in assay [2].

Take `OB(O)O` [Boric acid, reference compound]: in assay [4] (reference, boric acid 160 mmole/kg), the “Improvement factor IFI” value is recorded as 1. For the same molecule, in assay [3], the “inhibition of proteolytic enzymes” value is listed as “reversibly inhibit proteolytic enzymes”.

`COc1ccc(B(O)O)cc1` [4-methoxyphenyl]: in assay [5], the “capacity as subtilisin inhibitor” value was “very good inhibitors”.

For the molecule `OB(O)c1cccs1` [Thiophene-2-boronic acid], the Ki in assay [1] and in assay [2] was 2000 µM each time. The “Improvement factor IFI” value in assay [4] (setting [6]) is recorded as 72.

As for `OB(O)c1cccc2c1oc1ccccc12` [Dibenzofuran-4-boronic acid], the results for the Ki in assay [1] and in assay [2] were 900 µM and 1100 µM, respectively. Also, the “Improvement factor IFI” value in assay [4] (setting [6]) was found to be 19.

In the case of `COc1ccc(B(O)O)s1` [5-Methoxythiophene-2-boronic acid], the Ki was found to be 2000 µM in assay [1] and 1000 µM in assay [2]. For the same molecule, the “Improvement factor IFI” value in assay [4] (setting [6]) was 14.

`OB(O)c1cc2ccccc2o1` [Benzofuran-2-boronic acid]: the “Improvement factor IFI” value in assay [4] (setting [6]) is listed as 190.

As to `OB(O)CCc1cccc2[nH]c3ccccc3c12` [4-Carbazole ethyl boronic acid], the inhibition constant Ki in assay [1] was determined as 1000 µM; in assay [2], 2000 µM.

In the case of `OB(O)c1ccccc1` [phenyl], the “capacity as subtilisin inhibitor” value in assay [5] is reported as “very good inhibitors”.

`OB(c1ccccc1)c1ccccc1` [Diphenylborinic acid (ethanolamine complex)]: the Ki came to 2000 µM in assay [1] and 4000 µM in assay [2].

For `Cc1cc(B(O)O)c(C)s1` [2,5-dimethylthiophene-3-boronic acid], the values for the Ki in assay [1] and in assay [2] were 3000 µM and 6000 µM, respectively. Besides, the “Improvement factor IFI” value in assay [4] (setting [6]) is reported as 7.

For the molecule `OB(O)c1cccc2oc3ccccc3c12` [Dibenzofuran-1-boronic acid], the inhibition constant (Ki) was 1100 µM in assay [1] and 1500 µM in assay [2]. Further, in assay [4] (setting [6]), the “Improvement factor IFI” value came out at 9.

For `OB(O)c1ccc(Cl)s1` [5-Chlorothiophene-2-boronic acid], the values for the inhibition constant (Ki) in assay [1] and in assay [2] were 300 µM and 200 µM, respectively. In addition, the “Improvement factor IFI” value in assay [4] (setting [6]) turned out to be 123.

With `OB(O)c1ccsc1` [Thiophene-3-boronic acid], the Ki in assay [1] and in assay [2] was 2000 µM in each case. For the same molecule, the “Improvement factor IFI” value in assay [4] (setting [6]) worked out at 63.

On to Picoline-2-boronic acid, for which the values for the Ki in assay [1] and in assay [2] were 3000 µM and 4000 µM, respectively.

With `Cc1ccc(B(O)O)s1` [5-Methylthiophene-2-boronic acid], the values for the Ki in assay [1] and in assay [2] were 2000 µM and 3000 µM, respectively. Moreover, the “Improvement factor IFI” value in assay [4] (setting [6]) is 12.

With `OB(O)c1cccc2sc3ccccc3c12` [Dibenzothiophene-1-boronic acid], the Ki in assay [1] amounted to 900 µM; in assay [2], 1500 µM. Moreover, in assay [4] (setting [6]), the “Improvement factor IFI” value was 12.

For the molecule `OB(O)c1cc(Cl)cc(Cl)c1` [3,5-dichlorophenylboronic acid], in assay [5], the “capacity as subtilisin inhibitor” value was “particularly effective”.

For the molecule `CB(O)O` [methylboronic acid], the “capacity as subtilisin inhibitor” value in assay [5] is listed as “poorest inhibitor”.

Turning to `Cc1csc(B(O)O)c1` [4-Methylthiophene-2-boronic acid], the Ki in assay [1] stood at 1800 µM; in assay [2] it was 3000 µM. Besides, the “Improvement factor IFI” value in assay [4] (setting [6]) was found to be 4.

For `OB(O)c1ccoc1` [Furan-3-boronic acid], the inhibitory constant (Ki) in assay [1] amounted to 10000 µM; in assay [2], 7000 µM. In assay [4] (setting [6]), the “Improvement factor IFI” value was determined as 32.

In the case of `COc1ccsc1B(O)O` [3-Methoxythiophene-2-boronic acid], the figures for the Ki in assay [1] and in assay [2] were 3000 µM and 1200 µM, respectively. The “Improvement factor IFI” value in assay [4] (setting [6]) amounted to 8.

`OB(O)c1ccco1` [Furan-2-boronic acid]: the inhibition constant (Ki) in assay [1] was determined as 3000 µM; in assay [2] it was 4000 µM. Also, the “Improvement factor IFI” value in assay [4] (setting [6]) is given as 13.
